Assay results: patent publication US12338236B2, “Benzoisothiazole and benzoisoxazole compounds for the treatment of mental disorders” (SUVEN LIFE SCIENCES LIMITED, priority 2022, dated 2025)
Where a name gives a salt, the structure may show the parent alone.

What was measured:
[1] = Rodent brain penetration study; format: in vivo, Male Wistar rats; settings: male, Wistar, brain and plasma, po; rat, 3 mg/kg, p.o. @ 1 h; read-out: Rat Brain Penetration (Cbrain/Cplasma)
Protocol: Example-50: Rodent Brain Penetration Study Male Wistar rats (260±40 g) were used as experimental animals. Three animals were housed in each cage. Animals were given water and food ad libitum throughout the experiment and maintained on a 12 h light/dark cycle. Brain penetration was determined in discrete manner in rats. One day prior to dosing day, male Wistar rats were acclimatized and randomly grouped according to their weight. At each time point (0.50, 1 and 2 h) n=3 animals were used. The test compounds were suitably preformulated and administered orally at (free base equivalent) 3 mg/kg. Blood samples were removed via cardiac puncture by using isoflurane anesthesia. The animals were sacrificed to collect brain tissue. Plasma was separated and brain samples were homogenized and stored frozen at −20° C. until analysis. The concentrations of the test compounds in plasma and brain were determined using LC-MS/MS method. The test compounds were quantified in plasma and brain homogenate by qualified LC-MS/MS method using suitable extraction technique in the calibration range of 1-2000 ng/mL. Study samples were analyzed using calibration samples in the batch and quality control samples spread across the batch. Extent of brain-plasma ratio (Cbrain/Cplasma) was calculated

[2] = Rodent pharmacokinetic study; format: in vivo, Male Wistar rats; settings: male, Wistar, plasma, rat; for bioavailability: oral 3 mg/kg vs intravenous 1 mg/kg, read-out: F (Bioavailability)
Protocol: Example-49: Rodent Pharmacokinetic Study
Male Wistar rats (250±50 grams) were used as experimental animals. Animals were housed individually in polypropylene cages. Two days prior to study, male Wistar rats were anesthetized with isoflurane for surgical placement of jugular vein catheter. Rats were randomly divided for oral (3 mg/kg and 10 mL/kg as dose volume) and intravenous (1 mg/kg and 2.0 mL/kg as dose volume) dosing (n=3/group) and fasted overnight before oral dosing (p.o.). However, rats allocated to intravenous dosing food and water was provided ad libitum.
Intravenous formulation was prepared by using 5% Pharmasolve+45% Propylene Glycol+50% PEG 400 as vehicle. For Oral, formulation was prepared by using 0.25% Tween 80+99.75% of 1% (w/v) hydroxyethylcellulose solution as a vehicle. The dose formulations were prepared freshly on the day of dosing.
After dosing of animal, each time point a 200 μL of blood sample was collected through the jugular vein and replenished with an equivalent volume of normal saline. Collected blood sample was transferred into a labeled eppendorf tube containing 10 μL of sodium heparin (1000 IU/mL) as an anticoagulant. Typically blood samples were collected at following time points: 0.08, 0.25, 0.5, 1, 2, 4, 6, 8, and 24 h post dose. Blood was centrifuged at 4000 revolutions per minute (rpm) for 10 min. Plasma was separated and stored frozen at −80° C. until analysis. The concentrations of the test compounds were quantified in plasma by qualified LC-MS/MS method using suitable extraction technique in the calibration range around 1-2000 ng/mL in plasma. Study samples were analyzed using calibration samples in the batch and quality control samples spread across the batch.
Pharmacokinetic parameters Cmax, AUC0-t, t1/2, Clearance and Bioavailability (F) were calculated using standard non-compartmental model by using Phoenix WinNonlin 8.1 version Software package.

[3] = tested on: amphetamine-induced hyperlocomotion; experiment: Amphetamine-induced open field assay; format: in vivo, Male Wistar rats; settings: rats, 3, 10, 30 mg/kg, p.o., vs Amphetamine (2.5 mg/kg, i.p.) treated group
Protocol: Example-51: Amphetamine-Induced Open Filed Assay
Male Wistar rats of 230-250 g weight were used. The body weights of the rats were recorded. Rats were randomized according to their body weights. Animals were brought to the laboratory 1 h prior to acclimatizing to the laboratory conditions. The open field is black colored arena of 51×51×51 cm enclosed by black plastic walls of same dimensions. Rats were habituated to the open field arena for a period of 15 min. Animals were administered respective treatments (Vehicle or Example-2) 60 min prior to the trial. After 30 min, animals were challenged with amphetamine (2.5 mg/kg, i.p.) or vehicle. Then the animals were placed in open field arenas and distance traveled by […] was tracked for 15 min using Videomot software. Data was analyzed using GraphPad prism.

[4] = target: T1, human 5-HT2A receptor (Homo sapiens, UniProt P28223); experiment: Determination of Ki values at 5-HT2A receptor ([3H]-Ketanserine radioligand binding); settings: h5-HT2A, CHO-K1, [3H]-Ketanserine 1.25 nM
T1 construct: expressed in transfected cells; host or cells: CHO-K1
T1 sequence (P28223 whole entry): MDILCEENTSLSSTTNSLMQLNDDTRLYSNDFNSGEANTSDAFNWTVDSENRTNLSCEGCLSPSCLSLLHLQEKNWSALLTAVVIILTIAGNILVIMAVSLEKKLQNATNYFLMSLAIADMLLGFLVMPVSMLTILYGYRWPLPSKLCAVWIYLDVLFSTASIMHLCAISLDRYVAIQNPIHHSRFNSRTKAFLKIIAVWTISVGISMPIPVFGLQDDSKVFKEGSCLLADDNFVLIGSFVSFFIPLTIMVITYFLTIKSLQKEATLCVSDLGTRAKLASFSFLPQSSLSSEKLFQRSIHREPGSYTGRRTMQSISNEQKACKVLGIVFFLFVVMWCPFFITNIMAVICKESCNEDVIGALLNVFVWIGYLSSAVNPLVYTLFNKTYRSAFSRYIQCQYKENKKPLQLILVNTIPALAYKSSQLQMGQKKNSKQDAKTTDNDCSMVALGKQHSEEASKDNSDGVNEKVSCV
Protocol: Example-44: Determination of Ki Values at 5-HT2A Receptor
• Receptor source: Recombinant mammalian cells (CHO-K1) • Radioligand: [^3H]-Ketanserine (41.9 Ci/mmol) • Final ligand concentration: 1.25 nM • Non-specific determinant: 0.1 mM 1-Napthyl piperazine (1-NP) • Reference compound: 1-Napthyl piperazine (1-NP) • Positive control: 1-Napthyl piperazine (1-NP) Incubation conditions: Reactions were carried out in buffer with pH 7.4 containing 50 mM Tris-HCl, 4 mM CaCl2, 0.1% Ascorbic acid for 1 h at RT. The reaction was terminated by rapid vacuum filtration onto the glass fiber filters. Radioactivity trapped onto the filters was determined and compared to the control values in order to ascertain any interactions of the test compound(s) with cloned human 5-HT2A receptor binding site.

[5] = tested on: DOPA levels in striatum; experiment: Reserpine-induced DOPA accumulation; format: in vivo, Male Wistar rats; settings: rats, 3 mg/kg, p.o., 1.16 h before sacrifice, striatum
Protocol: Example-53: Reserpine-Induced DOPA Accumulation
Male Wistar rats were pretreated with reserpine (5 mg/kg, s.c.) approximately 18 h before sacrifice and were thereafter fasted until sacrifice. Example-2 (3 mg/kg, p.o.) and (3-(3-hydroxyphenyl)-N-n-propylpiperidine (3-PPP); 30 mg/kg, s.c.) were administered 1.16 h and 1 h, respectively before sacrifice. Haloperidol (0.5 mg/kg, s.c.) was used as a positive control and was dosed 10 min prior to 3-PPP in a separate group of animals. 3-Hydroxybenzylhydrazine dihydrochloride (NSD-1015; 100 mg/kg, s.c.) was then administered 0.5 h before sacrifice. Each rat was sacrificed, brain was removed and then striatum was isolated. The tissue was immediately weighed and homogenized in 0.1 N perchloric acid by means of an ultrasonic disruptor while being cooled in ice. The homogenate was centrifuged at 4° C. at 20,000 g for 15 min. The supernatant was assayed for dihydroxyphenylalanine (DOPA) levels using HPLC-ECD.

Compound | Kp at 1 h [1] | bioavailability [2] [%] | AUC(0-t) ([2]; intravenous (bolus), 1 mg/kg) [ng·h/mL] | half-life ([2]; intravenous (bolus), 1 mg/kg) [h] | AUC(0-t) ([2]; oral (gavage), 3 mg/kg) [ng·h/mL] | Cmax ([2]; oral (gavage), 3 mg/kg) [ng/mL] | Effect on amphetamine-induced locomotion (distance traveled) [3] | Ki [4] [nM] | Blockade of the effects of 3-PPP on reserpine induced DOPA accumulation [5] [%]
Cc1nnc(-c2csc(OCCCN3CCN(c4nsc5ccccc45)CC3)n2)o1 [Example-2, 3-(4-{3-[4-(5-Methyl-[1,3,4]oxadiazol-2-yl)-thiazol-2-yloxy]-propyl}-piperazin-1-yl)-benzo[d]isothiazole oxalate] | 1.25 | 46 ± 2 | 575 ± 60.8 | 1.98 ± 0.96 | 795 ± 34.5 | 724 ± 170 | significant decrease in locomotion | 0.24 | 25
Cc1noc(-c2csc(OCCCN3CCN(c4nsc5ccccc45)CC3)n2)n1 [compound 12, 3-(4-{3-[4-(3-Methyl-[1,2,4]oxadiazol-5-yl)-thiazol-2-yloxy]-propyl}-piperazin-1-yl)-benzo[d]isothiazole oxalate] | 2.09 | 18 ± 4.3 | 467 ± 115 | 2.59 ± 0.49 | 250 ± 60 | 279 ± 59.2 |  | 0.5 | 
